Data set [1] can be described thus: Plasma TCHO, TG, LDL, VLDL measured with kits at end of study. It counts as in vivo, C57BL/6 male mice. As to conditions: HFD obese mice, DHB 70 mg/kg i.g. daily with or without EODF vs no DHB. On the procedure:
(§1) 50 C57BL/6 male mice aged about 8 weeks, are randomly assigned to five study groups (GA, GB1, GB2, GB3, GB4) of ten mice each (one cage, n=5 per condition). Mice were maintained in a pathogen free condition under a strict 12 h light/dark cycle (0600/1800 h) with 12-15 cycles/hour of air change. Mice were provided with access to respective feed and water ad libitum as per experimental conditions. Mice were housed under controlled laboratory conditions of temperature and humidity at 23±2° C. and 50±10% RH, respectively. Each study group consisted of ten animals, and treatment details of the individual study groups are given below: • Group A (GA, NC): Normal mice, maintained on normal diet (standard chow, 12% calories from fat; 23% calories from protein and 65% calories from carbohydrates) for 8 weeks, receiving neither EODF nor DHB treatment. • Group B1 (GB1): Obese mice, maintained on high fat diet (HFD, 60% calories from fat, 20% calories from protein, 20% calories from carbohydrate) for 8 weeks, receiving neither EODF nor DHB treatment. • Group B2 (GB2): Obese mice, maintained on HFD for 8 weeks, receiving only EODF and no DHB treatment. • Group B3 (GB3): Obese mice, maintained on HFD for 8 weeks, receiving only DHB treatment and no EODF. • Group B4 (GB4): Obese mice, maintained on HFD for 8 weeks, receiving DHB treatment and EODF combination. DHB was administered daily via intragastric injection (i.g.) according to a level of 70 mg/kg body weight. Mice not receiving DHB were given orally with ultrapure water. At the end of the study blood was collected from all test groups and a various clinical parameter: plasma total cholesterol (TCHO), triglyceride (TG), low density lipoprotein (LDL), very low-density lipoprotein (VLDL) were measured using corresponding kits according to the manufacturers' instructions.

The nature of data set [2]: Oral glucose tolerance test (OGTT). In kind it is in vivo, C57BL/6 male mice. Particulars: HFD obese mice. On the procedure:
as §1, with “Oral glucose tolerance test (OGTT): To measure glucose levels in blood, GTT were implemented in the mice (NC and HFD groups) after overnight by using a glucose analyzer. The glucose concentrations were measured in blood collected by venous bleeding from the tail vein immediately at 0, 15, 30, 60 and 120 min after administered glucose at 2 g/kg orally. Towards” for “At”, “final week of the study, GTT” for “study blood”, “also performed for” for “collected from”, “mice (NC” for “test groups”, “HFD groups).” for “a various clinical parameter: plasma total cholesterol (TCHO), triglyceride (TG), low density lipoprotein (LDL), very low-density lipoprotein (VLDL) were measured using corresponding kits according to the manufacturers' instructions.”

The nature of data set [3]: Normal-diet mice given DHB with or without EODF, tested by the same method. In kind it is in vivo, C57BL/6 male mice. As to conditions: normal mice on normal diet. On the procedure:
40 C57BL/6 male mice aged about 8 weeks, are randomly assigned to four study groups (GA1, GA2, GA3, GA4) of ten mice each (one cage, […]). Mice were maintained in a pathogen free condition under a strict 12 h light/dark cycle (0600/1800 h) with 12-15 cycles/hour of air change. Mice were provided with access to respective feed and water ad libitum as per experimental conditions. Mice were housed under controlled laboratory conditions of temperature and humidity at 23±2° C. and 50±10% RH, respectively. Each study group consisted of ten animals, and treatment details of the individual study groups are given below: • Group A1 (GA1, NC): Normal mice, maintained on normal diet (standard chow, 12% calories from fat; 23% calories from protein and 65% calories from carbohydrates) for 8 weeks, receiving neither EODF nor DHB treatment. • Group A2 (GA2): Normal mice, maintained on normal diet for 8 weeks, receiving only EODF and no DHB treatment. • Group A3 (GA3): Normal mice, maintained on normal diet for 8 weeks, receiving only DHB treatment and no EODF. • Group A4(GA4): Normal mice, maintained on normal diet for 8 weeks, receiving DHB treatment and EODF combination. Test according to the above method. […] This effect persists for as long as the test protocol is continued.

The conditions of data set [4]: in vitro; cited from earlier work.
Setting [5] is: DHB + EODF combination vs EODF only.

In the case of `COc1ccc2c(c1OC)CN1CCc3cc4c(cc3C1=C2)OCO4` [DHB, Dihydroberberine], in data set [1] (FIG. 5), the TG result was “lower levels”. Besides, in data set [1] (FIG. 6), the TCHO entry was “lower levels”. Moreover, the LDL entry in data set [1] (FIG. 7) was “lower levels”. Also, the VLDL entry in data set [1] (FIG. 8) is reported as “lower levels”. In data set [2] (DHB 70 mg/kg i.g. daily vs no DHB with and without EODF, FIGS. 11-14), the blood glucose levels result was “greater reduction”. Moreover, in data set [2] (setting [5]), the “improving the glucose tolerance” value is on record as “greater effects” and the “reducing the blood glucose levels” value is “greater effects”. In addition, the glucose tolerance result in data set [2] (glucose 2 g/kg orally, DHB vs no DHB with and without EODF) was “better”. Also, in data set [3] (setting [5]), the “effects (same tests as in obese mice)” value is recorded as “greater effects”. The “effectiveness (same tests as in obese mice)” value in data set [3] (DHB vs no DHB with and without EODF) is recorded as “greater effectiveness”. The “intestinal absorption rate relative to BBR” value in data set [4] is reported as “five times higher”.

The record behind these values is patent US20250360113A1, “ADMINISTRATION OF DHB TO INCREASE BENEFIT OF LOSING WEIGHT OF INTERMITTENT FASTING” (NANJING NUTRABUILDING BIO-TECH CO., LTD., priority 2023, published 2025).
